Results on one compound are retold here after patent publication US20230133958A1, “COMPOUNDS USEFUL IN MODULATING EGFR AND PI3K” (Mekanistic Therapeutics LLC, priority 2021, published 2023).

The target of this experiment is MTOR (Homo sapiens, UniProt P42345). Put plainly: Z'-LYTE / Adapta biochemical kinase assay, MTOR. The source says:
The Z′-LYTE® biochemical assay employs a fluorescence-based, coupled-enzyme format and is based on the differential sensitivity of phosphorylated and non-phosphorylated peptides to proteolytic cleavage. The peptide substrate is labeled with two fluorophores—one at each end—that make up a FRET pair. In the primary reaction, the kinase transfers the gamma-phosphate of ATP to a single tyrosine, serine or threonine residue in a synthetic FRET-peptide. In the secondary reaction, a site-specific protease recognizes and cleaves non-phosphorylated FRET-peptides. Phosphorylation of FRET-peptides suppresses cleavage by the Development Reagent. […] A ratiometric method, which calculates the ratio (the Emission Ratio) of donor emission to acceptor emission after excitation of the donor fluorophore at 400 nm, is used to quantitate reaction progress.
A significant benefit of this ratiometric method for quantitating reaction progress is the elimination of well-to-well variations in FRET-peptide concentration and signal intensities. […]
Both cleaved and uncleaved FRET-peptides contribute to the fluorescence signals and therefore to the Emission Ratio. The extent of phosphorylation of the FRET-peptide can be calculated from the Emission Ratio. […]

pIC50: −log10 of the molar value.

`CS(=O)(=O)Nc1cc(-c2ccc3ncnc(Nc4cccc(Cl)c4F)c3c2)cnc1Cl` [Compound 6, N-[2-chloro-5-[4-(3-chloro-2-fluoro-anilino)quinazolin-6-yl]-3-pyridyl] methanesulfonamide]: the negative logarithm of the IC50 (pIC50) was 7.70 to 8.70.
